We go through one compound from ChEMBL document CHEMBL1154528, “Discovery of a novel series of quinoxalines as inhibitors of c-Met kinase” (Bioorg Med Chem Lett, 2009).

The structures appear in SMILES notation.

Experiment [1] can be described thus: Inhibition of Flt at 10 uM. Also noted: scale not given: the % may be the effect or the level left.
Experiment [2] concerns the target Vascular endothelial growth factor receptor 2 (Homo sapiens) (UniProt P35968). The experiment can be described thus: Inhibition of KDR at 10 uM. Further details: scale not given: the % may be the effect or the level left.

Sequence of Vascular endothelial growth factor receptor 2 (Homo sapiens) (P35968 whole entry): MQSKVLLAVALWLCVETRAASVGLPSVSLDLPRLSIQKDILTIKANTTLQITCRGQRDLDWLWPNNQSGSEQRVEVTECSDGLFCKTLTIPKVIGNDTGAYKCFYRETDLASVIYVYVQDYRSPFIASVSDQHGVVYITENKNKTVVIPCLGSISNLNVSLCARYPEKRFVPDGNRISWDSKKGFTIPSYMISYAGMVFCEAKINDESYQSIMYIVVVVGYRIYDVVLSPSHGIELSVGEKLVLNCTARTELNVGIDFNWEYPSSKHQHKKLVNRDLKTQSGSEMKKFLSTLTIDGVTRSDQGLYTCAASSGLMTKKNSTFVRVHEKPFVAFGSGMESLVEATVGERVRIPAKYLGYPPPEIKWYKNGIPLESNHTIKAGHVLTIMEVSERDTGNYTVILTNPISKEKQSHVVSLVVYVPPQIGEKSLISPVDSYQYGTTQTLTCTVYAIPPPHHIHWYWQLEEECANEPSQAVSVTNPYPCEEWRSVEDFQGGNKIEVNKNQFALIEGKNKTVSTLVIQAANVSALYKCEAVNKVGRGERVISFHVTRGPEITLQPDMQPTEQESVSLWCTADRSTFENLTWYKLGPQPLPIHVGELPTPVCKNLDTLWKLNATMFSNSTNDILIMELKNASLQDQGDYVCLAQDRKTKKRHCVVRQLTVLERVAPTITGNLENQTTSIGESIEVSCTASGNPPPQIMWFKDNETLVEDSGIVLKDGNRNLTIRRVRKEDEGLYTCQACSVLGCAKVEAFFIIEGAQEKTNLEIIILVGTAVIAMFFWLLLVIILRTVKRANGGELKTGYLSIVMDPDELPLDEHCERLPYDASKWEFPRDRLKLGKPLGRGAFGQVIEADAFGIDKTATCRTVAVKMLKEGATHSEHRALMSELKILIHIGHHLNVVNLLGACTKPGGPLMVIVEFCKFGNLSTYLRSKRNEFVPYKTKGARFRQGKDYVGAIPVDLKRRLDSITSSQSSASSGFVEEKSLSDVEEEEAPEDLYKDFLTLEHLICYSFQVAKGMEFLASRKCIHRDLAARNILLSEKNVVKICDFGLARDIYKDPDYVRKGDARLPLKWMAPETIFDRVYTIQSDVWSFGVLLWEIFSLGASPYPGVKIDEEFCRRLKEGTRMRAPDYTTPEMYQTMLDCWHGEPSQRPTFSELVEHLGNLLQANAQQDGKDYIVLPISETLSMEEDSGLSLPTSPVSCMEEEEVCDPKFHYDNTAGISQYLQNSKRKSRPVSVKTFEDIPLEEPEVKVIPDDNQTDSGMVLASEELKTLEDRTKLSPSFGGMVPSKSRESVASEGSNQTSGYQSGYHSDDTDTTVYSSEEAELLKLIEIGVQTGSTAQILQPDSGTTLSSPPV

Regarding `CN1CCN(c2cnc3cc(C(F)(F)F)cc(-c4ccccc4)c3n2)CC1`, the Activity in experiment [1] and in experiment [2] was less than 30% throughout.
